From patent US20250241944A1 (CALIFORNIA INSTITUTE OF TECHNOLOGY, priority 2023, published 2025)
“Also recorded” adds a separate entry of the source. Read-outs that look alike come from different tables or passages of the source.

What was measured:
[1] = test system: RPA-infected chronic wounds
Protocol: A diabetic mouse model (db/db−/−) of chronic wounds that mimics chronic wounds in humans was used to investigate wound healing.
Wounds were treated daily between 10 and 40 days postwounding.
The quality of wound healing in treated mice was characterized by performing histological and immunofluorescence analyses on day 40 wounds (FIG. 18 Panel A).
To distinguish between and visualize the distribution of collagen I and collagen III in the granulation tissue, the wounds were also stained with Picrosirius Red (PSR). […] Collagen IV immunolabeling was used to show whether basal lamina under the epidermis was present, an important indicator of proper connectivity of the epithelium with the underlying dermis. […] Keratin 14/16 is a cytokeratin found in proliferating keratinocytes of the epidermis and is observed in the cytoplasm surrounding the nucleus.
Blood vessel development during wound healing is another indicator of proper healing. The number of microvessels present in the granulation tissue was quantified by immunolabeling the wound tissue with a-smooth muscle actin (aSMA), a protein that is present in the cells surrounding blood vessels.

[2] = mammals lack Nar; cited from earlier work
[3] = test system: RPA-infected chronic wounds; conditions: diabetic mouse model, reference [227]; cited from earlier work
[4] = test system: WT Pseudomonas aeruginosa UCBPP-PA14; test: Antibiotic treatment assay with viable plate counts (percent survival / log killing); conditions: for log killing: OD500=2, chlorate 10 mM, tobramycin 31.25 μg/mL
P. aeruginosa biofilms = conditions: via Nar activity, reference [32]; cited from earlier work
[5] = test system: RPA Anar strain (AnarGHJI); conditions: 24 h
Protocol: (§1) All experiments used Luria-Bertani (LB; Difco) as the growth medium, supplemented with KNO3 as specified. Aerobic liquid cultures were incubated at 37° C. with shaking at 250 RPM. Anaerobic work was conducted in an anaerobic glove box with a 95% N2-5% H2 atmosphere, and anaerobic cultures were incubated at 37° C.
For in vitro planktonic drug treatment studies, overnight RPA cultures were grown aerobically in LB broth supplemented with 40 mM KNO3. […] Cell resuspensions were added to 96-well plates (150 μL per well), and one 96-well plate was incubated statically (not shaking) at 37° C. at ambient oxygen, while a duplicate 96-well plate was incubated statically at 37° C. under anoxia (anaerobic glove box). Drug treatments were incubated for 24 h, after which cultures were serially diluted for viable cell counts. Viable cell counts were performed by serially diluting samples in phosphate-buffered saline (PBS). […] After incubation at 37° C., colonies were counted to quantify colony-forming units (CFU) per milliliter for each culture. Percent survival was calculated for each condition by dividing CFU/mL values from a drug treated sample by the average CFU/mL value from control (no drug) samples and multiplying by 100. […]
For in vitro biofilm drug studies, agar block biofilm assays (ABBAs) were used. […] Viable cell counts and percent survival were calculated for ABBA samples as described above.

[6] = test system: RPA (Riverside Pseudomonas aeruginosa) planktonic cultures; test: In vitro planktonic drug treatment, viable cell counts; format: cell-based; conditions: 24 h, ciprofloxacin 10 μg/mL, sodium chlorate 10 mM
[7] = humans; cited from earlier work
RPA aggregate biofilms = conditions: ABBA, 24 h; final 10 μg/mL ciprofloxacin, 10 mM sodium chlorate
Protocol: as §1
For in vitro biofilm drug studies, agar block biofilm assays (ABBAs) were used. Briefly, to set up ABBA, overnight RPA cultures were diluted to OD500=0.001 into cooled molten agar (44° C.) composed of LB with 5 mM KNO3 and 1% agar. Before the agar solidified, 500 μL of the cell-agar suspension was added to 2-mL Eppendorf tubes, after which samples were allowed to solidify. Eppendorf tubes were incubated at 37° C. for 24 h to allow cells to grow as aggregate biofilms suspended within the agar medium. After this growth incubation, ABBA samples were washed twice with 200 μL of PBS to remove cell growth that was not suspended within the agar. […] Drug treatments were incubated for 24 h at 37° C. To determine viable cell counts, ABBA samples were first homogenized by adding 300 μL of PBS to each sample and homogenizing on speed 3 with a Bio-Gen PRO200 Homogenizer (PRO Scientific).

[8] = five drugs of the study, hypoxic cultures
[9] = hypoxic conditions (static), 24 h, ciprofloxacin 1 μg/mL, ceftazidime 10 μg/mL
[10] = 24 h, hypoxic vs oxic conditions

For `[O-][Cl+2]([O-])O` [chlorate, sodium chlorate], the “effectiveness at promoting wound healing, comparison between treatments” value ([1]; day 40) was “as effective as ciprofloxacin”, the “PSR staining: collagen I and collagen III in the granulation tissue” value ([1]; day 40 healed wounds) was “staining of both collagen I and collagen III” and the “collagen IV immunolabeling: basement membrane under the epithelium” value ([1]; day 40 healed wounds) was “formed a basement membrane”. For the same molecule, the “aSMA immunolabeling: microvessels in the granulation tissue” value ([1]; day 40 wounds) was “showed microvessels”, the “quality of the wound tissue” value ([1]; day 40 wounds, histology) was “significantly improved” and the toxicity against mammals [2] was “low toxicity”. For the same molecule, the “healing of P. aeruginosa-infected chronic wounds by topical treatment” value [3] was “supports the healing”, the log killing ([4]; anoxic conditions (anaerobic glove box), 24 h) was roughly 2.5 log and the “toxicity / killing of P. aeruginosa cultures (in words)” value ([4]; anoxic conditions, 24 h) was “most effective; also recorded: some toxicity”. The “toxicity / killing of P. aeruginosa cultures (in words)” value ([4]; anoxic conditions, 24 h, listed as Chlorate) was “most toxic”, the “capacity for synergy across drug classes” value [4, 8] was “wide-ranging synergistic interactions; also recorded: broad capacity for synergy” and the log killing [4, 9] was 0.2 log. For the same molecule, the “toxicity / killing of P. aeruginosa cultures (in words)” value ([4]; hypoxic conditions, 24 h) was “little-to-no killing; also recorded: remain viable”, the “toxicity / killing of P. aeruginosa cultures (in words)” value ([4]; hypoxic conditions, 24 h, listed as Chlorate) was “nontoxic” and the “toxicity / killing of P. aeruginosa cultures (in words)” value ([4]; oxic conditions, 24 h) was “nontoxic”. For the same molecule, the “killing of O2-limited, antibiotic-tolerant biofilm populations” value (P. aeruginosa biofilms) was “kills”, the “susceptibility of Nar-lacking strain (in words)” value [5] was “highly resistant” and the “susceptibility of planktonic cultures (in words)” value ([6]; anoxic (anaerobic glove box)) was “highly susceptible”. For the same molecule, the “susceptibility of planktonic cultures (in words)” value ([6]; oxic (static, ambient oxygen)) was “highly tolerant” and the “estimated lethal oral dose” value [7] was 20-35 grams.
For `NC[C@H]1O[C@H](O[C@H]2[C@H](O)[C@@H](O[C@H]3O[C@H](CO)[C@@H](O)[C@H](N)[C@H]3O)[C@H](N)C[C@@H]2N)[C@H](N)C[C@@H]1O` [tobramycin], the “capacity for synergy across drug classes” value [4] was “do not”, the “synergy of chlorate-antibiotic combination” value [4] was “synergizing” and the “O2-dependence of efficacy (hypoxic compared to oxic)” value [4, 10] was “substantially less toxic”. For the same molecule, the “toxicity / killing of P. aeruginosa cultures (in words)” value ([4]; anoxic conditions, 24 h) was “some toxicity”, the “toxicity / killing of P. aeruginosa cultures (in words)” value ([4]; oxic conditions, 24 h) was “most effective” and the “toxicity / killing of P. aeruginosa cultures (in words)” value ([4]; oxic conditions, 24 h, listed as Tobramycin) was “below our detection limit”.
With `O=C(O)c1cn(C2CC2)c2cc(N3CCNCC3)c(F)cc2c1=O` [ciprofloxacin] the “O2-dependence of efficacy (hypoxic compared to oxic)” value [4] was “substantially less toxic”, the log killing [4, 9] was roughly 1.5 log and the “synergy of chlorate-antibiotic combination” value ([4]; hypoxic conditions, 24 h) was “synergizing”. The “killing / susceptibility of aggregate biofilms (in words)” value (RPA aggregate biofilms) was “susceptible to ciprofloxacin but show greater survival than planktonic cells”, the “susceptibility of planktonic cultures (in words)” value ([6]; anoxic (anaerobic glove box)) was “highly susceptible” and the “susceptibility of planktonic cultures (in words)” value ([6]; oxic (static, ambient oxygen)) was “highly susceptible”.
With `CC(C)(O/N=C(\C(=O)N[C@@H]1C(=O)N2C(C(=O)[O-])=C(C[n+]3ccccc3)CS[C@H]12)c1csc(N)n1)C(=O)O` [ceftazidime] the “O2-dependence of efficacy (hypoxic compared to oxic)” value [4] was “does not exhibit O2-dependent efficacy”, the “reduction of the effective (lethal, toxic) ceftazidime dose by chlorate addition” value [4] was greater than 100 fold and the “capacity for synergy across drug classes” value [4, 8] was “do not”. The “synergy of chlorate-antibiotic combination” value ([4]; hypoxic conditions, 24 h) was “synergizing”, the “toxicity / killing of P. aeruginosa cultures (in words)” value ([4]; hypoxic conditions, 24 h) was “completely resistant; also recorded: remain viable” and the “ceftazidime concentrations to which P. aeruginosa is resistant” value ([4]; hypoxic cultures, 24 h, ceftazidime alone) was ≤ 1,000 μg/mL. For the same molecule, the “toxicity / killing of P. aeruginosa cultures (in words)” value ([4]; oxic conditions, 24 h) was “completely resistant”.
With colistin the “P. aeruginosa viability after colistin combined with tobramycin, ciprofloxacin or ceftazidime” value [4] was “below our detection limit”, the “O2-dependence of efficacy (hypoxic compared to oxic)” value [4, 10] was “only marginally less effective at killing hypoxic cultures” and the “capacity for synergy across drug classes” value [4, 8] was “wide-ranging synergistic interactions; also recorded: broad capacity for synergy”. The “synergy in antibiotic-antibiotic combinations” value ([4]; hypoxic conditions, 24 h) was “displays synergistic interactions; also recorded: synergized” and the “synergy of chlorate-antibiotic combination” value ([4]; hypoxic conditions, 24 h) was “synergizing”.
